According to US11185531B2, “Arginine methyltransferase inhibitors and uses thereof” (Epizyme, Inc., priority 2013, dated 2021):

system: mono-methyl arginine in RKO cells; assay: RKO Methylation Assay, In Cell Western for mono-methyl arginine; format: cell-based; settings: Homo sapiens, 72 hours, percent activation of mono-methyl arginine signal
Description: RKO adherent cells were purchased from ATCC (American Type Culture Collection), Manassas, Va., USA. DMEM/Glutamax medium, penicillin-streptomycin, heat inactivated fetal bovine serum, 0.05% trypsin and D-PBS were purchased from Life Technologies, Grand Island, N.Y., USA. Odyssey blocking buffer, 800 CW goat anti-rabbit IgG (H+L) antibody, and Licor Odyssey infrared scanner were purchased from Licor Biosciences, Lincoln, Nebr., USA. Mono-methyl arginine antibody was purchased from Cell Signaling Technology, Danvers, Mass., USA. Methanol was purchased from VWR, Franklin, Mass., USA. 10% Tween 20 was purchased from KPL, Inc., Gaithersburg, Md., USA. DRAQ5 was purchased from Biostatus Limited, Leicestershire, UK.
RKO adherent cells were maintained in growth medium (DMEM/Glutamax medium supplemented with 10% v/v heat inactivated fetal bovine serum and 100 units/mL penicillin-streptomycin) and cultured at 37° C. under 5% CO2.
Cell Treatment, in Cell Western (ICW) for Detection of Mono-Methyl Arginine and DNA Content.
RKO cells were seeded in assay medium at a concentration of 20,000 cells per mL to a poly-D-lysine coated 384 well culture plate (BD Biosciences 356697) with 50 μL per well. Compound (100 nL) from a 96-well source plate was added directly to 384 well cell plate. Plates were incubated at 37° C., 5% CO2 for 72 hours. After three days of incubation, plates were brought to room temperature outside of the incubator for ten minutes and blotted on paper towels to remove cell media. 50 μL of ice cold 100% methanol was added directly to each well and incubated for 30 min at room temperature. After 30 min, plates were transferred to a Biotek EL406 plate washer and washed 2 times with 100 μL per well of wash buffer (IX PBS). Next 60 μL per well of Odyssey blocking buffer (Odyssey Buffer with 0.1% Tween 20 (v/v)) were added to each plate and incubated 1 hour at room temperature. Blocking buffer was removed and 20 μL per well of primary antibody was added (mono-methyl arginine diluted 1:200 in Odyssey buffer with 0.1% Tween 20 (v/v)) and plates were incubated overnight (16 hours) at 4° C. Plates were washed 5 times with 100 μL per well of wash buffer. Next 20 μL per well of secondary antibody was added (1:200 800 CW goat anti-rabbit IgG (H+L) antibody, 1:1000 DRAQ5 (Biostatus limited) in Odyssey buffer with 0.1% Tween 20 (v/v)) and incubated for 1 hour at room temperature. The plates were washed 5 times with 100 μL per well wash buffer then 2 times with 100 μL per well of water. Plates were allowed to dry at room temperature then imaged on the Licor Odyssey machine which measures integrated intensity at 700 nm and 800 nm wavelengths. Both 700 and 800 channels were scanned.
First, the ratio for each well was determined by:
Each plate included fourteen control wells of DMSO only treatment (minimum activation) as well as fourteen control wells for maximum activation treated with 20 μM of a reference compound. The average of the ratio values for each control type was calculated and used to determine the percent activation for each test well in the plate. Reference compound was serially diluted three-fold in DMSO for a total of nine test concentrations, beginning at 20 μM. Percent activation was determined and EC30 curves were generated using triplicate wells per concentration of compound.

First: CN(CCN)Cc1c[nH]nc1C1=CCOCC1 [Compound 10]
Second: CN(CCN)Cc1c[nH]nc1C1=CCCC1 [Compound 25]
The EC30 of the first is higher: greater than 12 µM for the first, 3.01 to 12 µM for the second.

`CC(C)c1n[nH]cc1CN(C)CCN` [Compound 21] and `Cc1n[nH]cc1CN(C)CCN` [Compound 30] cannot be ordered by EC30: greater than 12 µM for the first, greater than 12 µM for the second.

First: CN(CCN)Cc1c[nH]nc1C1CCCCC1 [Compound 22]
Second: CN(CCN)Cc1c[nH]nc1C1CCCC1 [Compound 31]
The EC30 of the first is lower: less than 3 µM for the first, greater than 12 µM for the second.

First: CN(CCN)Cc1c[nH]nc1CCc1ccc(F)cc1 [Compound 23, N^1-((3-(4-fluorophenethyl)-1H-pyrazol-4-yl)methyl)-N^1-methylethane-1,2-diamine]
Second: CCCc1n[nH]cc1CN(C)CCN [Compound 29]
The EC30 of the first is lower: less than 3 µM for the first, greater than 12 µM for the second.

`CN(CCN)Cc1c[nH]nc1/C=C/Cc1ccccc1` [Compound 24] and `CNCCN(C)Cc1c[nH]nc1C1CCN(C(=O)Cc2ccccc2)CC1` [Compound 32] cannot be ordered by EC30: less than 3 µM for the first, less than 3 µM for the second.

Compared with `CN(CCN)Cc1c[nH]nc1C1CCC1` [Compound 26], `CC1CCC(c2n[nH]cc2CN(C)CCN)CC1` (stereo not drawn) [Compound 37, N^1-methyl-N^1-((3-(4-methylcyclohexyl)-1H-pyrazol-4-yl)methyl)ethane-1,2-diamine] is lower in EC30: greater than 12 µM for the first, less than 3 µM for the second.

First: CN(CCN)Cc1n[nH]cc1C1CCCCC1 [Compound 33]
Second: CC1CCC(c2c[nH]nc2CN(C)CCN)CC1 (stereo not drawn) [Compound 35]
The EC30 of the first is higher: 3.01 to 12 µM for the first, less than 3 µM for the second.

`CNCCN(C)Cc1c[nH]nc1C1CCN(C(=O)C(C)C)CC1` [Compound 34] and `CNCCN(C)Cc1c[nH]nc1C1CCN(CC(C)C)CC1` [Compound 39, N^1-((3-(1-isobutylpiperidin-4-yl)-1H-pyrazol-4-yl)methyl)-N^1,N^2-dimethylethane-1,2-diamine] cannot be ordered by EC30: less than 3 µM for the first, less than 3 µM for the second.

`CN(CCN)Cc1n[nH]cc1C1CCC(C)(C)CC1` [Compound 36] and `CN(CCN)Cc1c[nH]nc1C1CCC(C)(C)CC1` [Compound 38, N^1-((3-(4,4-dimethylcyclohexyl)-1H-pyrazol-4-yl)methyl)-N^1-methylethane-1,2-diamine] cannot be ordered by EC30: less than 3 µM for the first, less than 3 µM for the second.

`CNCCN(C)Cc1c[nH]nc1C1CCN(C)CC1` [Compound 41] and `CNCCN(C)Cc1c[nH]nc1C1CCNCC1` [Compound 42] cannot be ordered by EC30: greater than 12 µM for the first, greater than 12 µM for the second.

For `CN(CCN)Cc1n[nH]cc1C1CCC(N2CCOCC2)CC1` (stereo not drawn) [Compound 44, N^1-methyl-N^1-((4-(4-morpholinocyclohexyl)-1H-pyrazol-3-yl)methyl)ethane-1,2-diamine], the EC30 was 3.01 to 12 µM.
